Our source for the EC50 values is PubChem BioAssay AID1159568 (Broad Institute, 2015).

In general, EC50 refers to the concentration needed to bring the measured effect to its halfway point.

In the experiment the test system is P. falciparum Dd2 in erythrocytes, SYBR Green growth, 72 h. Briefly: Dd2 parasite growth inhibition in erythrocytes – SYBR Green, dry powder samples, set 9, dose response (AID 1159568).

Records with an inconclusive call do not appear. The source made the active and inactive calls.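 How the source made its calls: active means signal loss with an EC50 at or below twice the highest valid dose for that sample; inconclusive means flat curve with 30 to 70% inhibition, or poor fit; inactive means the rest.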 Some results are limits rather than exact numbers.

On to `O=C(C[C@H]1C[C@H]2c3cc(NC(=O)c4ccc5c(c4)OCO5)ccc3O[C@H]2[C@H](CO)O1)NCc1ccc(Oc2ccccc2)cc1`, for which the EC50 was > 39 µM (inactive).
